Reference: ChEMBL document CHEMBL2202954, “The effect of PLC-γ2 inhibitors on the growth of human tumour cells” (2012)

Assays:
Assay type in all cases: functional
UACC-62 = assay: Cytotoxicity against human UACC62 cells assessed as cellular growth at 10 uM by SRB assay
RPMI-8226 = assay: Cytotoxicity against human RPMI8226 cells assessed as cellular growth at 10 uM by SRB assay
SW-620 = assay: Cytotoxicity against human SW620 cells assessed as cellular growth at 10 uM by SRB assay
PC-3 = assay: Cytotoxicity against human PC3 cells assessed as cellular growth at 10 uM by SRB assay
A498 = assay: Cytotoxicity against human A498 cells assessed as cellular growth at 10 uM by SRB assay
BT-549 = assay: Cytotoxicity against human BT549 cells assessed as cellular growth at 10 uM by SRB assay
HCC 2998 = assay: Cytotoxicity against human HCC2998 cells assessed as cellular growth at 10 uM by SRB assay
U-251 = assay: Cytotoxicity against human U251 cells assessed as cellular growth at 10 uM by SRB assay
SF-268 = assay: Cytotoxicity against human SF268 cells assessed as cellular growth at 10 uM by SRB assay
M14 = assay: Cytotoxicity against human M14 cells assessed as cellular growth at 10 uM by SRB assay
CCRF-CEM = assay: Cytotoxicity against human CCRF-CEM cells assessed as cellular growth at 10 uM by SRB assay
UACC-257 = assay: Cytotoxicity against human UACC257 cells assessed as cellular growth at 10 uM by SRB assay
Hs-578T = assay: Cytotoxicity against human Hs578T cells assessed as cellular growth at 10 uM by SRB assay
SN12C = assay: Cytotoxicity against human SN12C cells assessed as cellular growth at 10 uM by SRB assay
HCT-15 = assay: Cytotoxicity against human HCT15 cells assessed as cellular growth at 10 uM by SRB assay
NCI-H522 = assay: Cytotoxicity against human NCI-H522 cells assessed as cellular growth at 10 uM by SRB assay
NCI-H23 = assay: Cytotoxicity against human NCI-H23 cells assessed as cellular growth at 10 uM by SRB assay
CAKI-1 = assay: Cytotoxicity against human Caki1 cells assessed as cellular growth at 10 uM by SRB assay
KM12 = assay: Cytotoxicity against human KM12 cells assessed as cellular growth at 10 uM by SRB assay
RXF 393 = assay: Cytotoxicity against human RXF393 cells assessed as cellular growth at 10 uM by SRB assay

| SMILES | Activity (UACC-62) [%] | Activity (RPMI-8226) [%] | Activity (SW-620) [%] | Activity (PC-3) [%] | Activity (A498) [%] | Activity (BT-549) [%] | Activity (HCC 2998) [%] | Activity (U-251) [%] | Activity (SF-268) [%] | Activity (M14) [%] | Activity (CCRF-CEM) [%] | Activity (UACC-257) [%] | Activity (Hs-578T) [%] | Activity (SN12C) [%] | Activity (HCT-15) [%] | Activity (NCI-H522) [%] | Activity (NCI-H23) [%] | Activity (CAKI-1) [%] | Activity (KM12) [%] | Activity (RXF 393) [%] |
| --- | --- | --- | --- | --- | --- | --- | --- | --- | --- | --- | --- | --- | --- | --- | --- | --- | --- | --- | --- | --- |
| O=C(Nc1ccc2oc(=O)ccc2c1)c1ccc(-c2ccc(Br)cc2)o1 | 104.75 | 108.92 | 107.9 | 111.02 | 101.8 | 118.79 | 112.96 | 98.16 | 106.9 | 114.52 | 103.74 | 114.76 | 104.83 | 99.06 | 108.33 | 105.32 | 103.68 | 183.36 | 114.03 | 112.24 |
| Clc1ccc(-c2nc(-c3cccs3)no2)cc1 | 89.8 | 93.69 | 105.71 | 103.14 | 93.08 | 111.04 | 32.91 | 90.3 | 105.52 | 105.16 | 78.29 | 109.98 | 136.36 | 97.08 | 47.45 | 92.03 | 92.82 | 102.58 | 92.39 | 112.7 |
| COc1ccc(NC(=O)c2sc3nc4c(cc3c2N)C(=O)CCC4)cc1 | 110.45 | 104.85 | 111.85 | 99.67 | 39.38 | 103.09 | 94.7 | 106.61 | 109.11 | 103.89 | 88.17 | 117.22 | 135.57 | 116.88 | 100.8 | 100.22 | 96.26 | 97.06 | 105.15 | 101.13 |
| Cc1ccccc1NC(=O)c1sc2nc3c(cc2c1N)C(=O)CCC3 | 36.9 | 67.19 | 25.37 | 30.33 | 31.28 | 55.62 | 67 | 48.96 | 65.36 | 41.54 | 30.28 | 60.99 | 25.78 | 64.53 | 32.76 | 12.53 | 50.58 | 55.35 | 19.22 | -10.38 |
| Cc1cc(C)c(NC(=O)c2sc3nc4c(cc3c2N)C(=O)CC(C)(C)C4)c(C)c1 | 96.9 | 90.56 | 106.45 | 87.69 | 89.84 | 109.43 | 105.78 | 99.68 | 115.09 | 107.36 | 90.08 | 101.32 | 108.69 | 103.6 | 96.97 | 100.45 | 94.31 | 82.45 | 112.78 | 105.64 |
| Oc1ccccc1-c1nc(-c2cccs2)no1 | 89.11 | 87.52 | 95.69 | 85.02 | 105.68 | 92.36 | 83.27 | 89.74 | 112.74 | 106.76 | 91.77 | 96.64 | 93.55 | 90.61 | 64.4 | 96.76 | 94.82 | 97.52 | 100.01 | 117.42 |
| Cc1ccc(S(=O)(=O)Oc2ccc(-c3cnc4ccccc4n3)cc2)cc1 | 94.5 | 88.46 | 103.63 | 90.9 | 88.71 | 107.31 | 102.2 | 89.92 | 118.59 | 123.34 | 96.08 | 102.87 | 110.2 | 108.92 | 93.92 | 93.02 | 96.23 | 92.87 | 105.85 | 103.74 |
| O=C(Nc1nc2ccccc2s1)c1ccc(F)cc1 | 89.52 | 88.45 | 112.1 | 96.56 | 89.82 | 109.49 | 69.88 | 99.72 | 114.42 | 109.51 | 100.74 | 107.84 | 140.08 | 108.22 | 85.53 | 92.24 | 89.91 | 62.93 | 52.84 | 106.77 |
| O=c1/c(=C/c2ccc(Cl)cc2Cl)sc2nc(-c3ccccc3)nn12 | 89.1 | 112.43 | 107.15 | 106.44 | 112.37 | 122.09 | 117.6 | 103.07 | 107.16 | 103.59 | 95.93 | 112.2 | 98.17 | 94.22 | 100.58 | 98.76 | 101.62 | 116.76 | 101.32 | 121.72 |
| Nc1c(C(=O)Nc2ccccc2F)sc2nc3c(cc12)C(=O)CCC3 | 23.7 | 52.02 | 30 | 23.38 | -1.01 | 59.83 | 43.8 | 31.63 | 54.87 | 19.18 | 26.78 | 66.94 | 37.25 | 49.76 | 40.21 | -15.17 | 42.84 | 4.36 | 24.63 | 9.63 |
| CC1(C)CCc2cc(-c3ccn(S(=O)(=O)c4cccc(C(F)(F)F)c4)n3)ccc2O1 | 84.21 | 68.84 | 88.93 | 88.93 | 94.88 | 119.64 | 104.44 | 81.96 | 102.56 | 97.31 | 74.11 | 81.69 | 107.85 | 91.59 | 89.34 | 87.1 | 81.53 | 105.83 | 98.53 | 97.2 |
| CC1(C)CC(=O)c2cc3c(N)c(C(=O)Nc4ccc(F)cc4)sc3nc2C1 | 119.59 | 103.3 | 106.24 | 110.47 | 87.2 | 111.85 | 105.43 | 101.59 | 124.1 | 121.48 | 107.91 | 107.39 | 111.09 | 122.37 | 100.72 | 102.43 | 102 | 98.34 | 115.29 | 108.89 |
| Clc1ccc(-c2nc(-c3cccs3)no2)c(Cl)c1 | 88.98 | 86.03 | 88.07 | 83.22 | 110.86 | 83.02 | 66.03 | 90.09 | 99.25 | 100.46 | 85.99 | 76.15 | 96.13 | 100.86 | 73.54 | 91.42 | 92.64 | 81.96 | 99.27 | 107.35 |
| Cc1ccc(S(=O)(=O)NC2=NC(=O)/C(=C\c3ccccc3)S2)cc1 | 96.39 | 104.04 | 109.53 | 111.74 | 11.33 | 113.45 | 106.96 | 98.58 | 99.46 | 110.84 | 92.01 | 104.4 | 128.48 | 99.26 | 104.84 | 85.18 | 107.93 | 102.92 | 115 | 118.7 |
| c1ccc(-c2nc(-c3cccs3)no2)cc1 | 93.02 | 102.22 | 101.1 | 96.07 | 96.9 | 105.93 | 117.01 | 94.72 | 105.23 | 111.09 | 97.84 | 103.2 | 100.69 | 91.08 | 94.44 | 96.9 | 93.94 | 100.18 | 99.88 | 122.84 |
| O=C(NCCc1ccccc1)c1cc2cccc([N+](=O)[O-])c2[nH]1 | 71.51 | 88.5 | 108.15 | 77.13 | 117.41 | 99.6 | 105.66 | 97.58 | 106.93 | 100.89 | 86.81 | 108.88 | 111.09 | 94.11 | 86.79 | 84.92 | 92.74 | 87.57 | 106.02 | 105.34 |
